# Laboratory results reported in paper PMC5572114, “Guanidine N-methylation by BlsL Is Dependent on Acylation of Beta-amine Arginine in the Biosynthesis of Blasticidin S” (Frontiers in Microbiology, 2017).
# Target: T1, BlsL (Streptomyces griseochromogenes, UniProt Q841K2)
# T1 construct: gene J2Z21_009042; full length, His-tagged, pET28a NdeI/EcoRI, E. coli BL21(DE3); gene from cluster plasmid pJTU1780; primers encode N-terminus MEQSTGA, C-terminus CFYKD
# Assay: SAM released from boiled purified BlsL; HPLC and MS/MS
# Assay type: binding
# Conditions: co-purified endogenous ligand; methyl donor
# T1 sequence (Q841K2 1-213): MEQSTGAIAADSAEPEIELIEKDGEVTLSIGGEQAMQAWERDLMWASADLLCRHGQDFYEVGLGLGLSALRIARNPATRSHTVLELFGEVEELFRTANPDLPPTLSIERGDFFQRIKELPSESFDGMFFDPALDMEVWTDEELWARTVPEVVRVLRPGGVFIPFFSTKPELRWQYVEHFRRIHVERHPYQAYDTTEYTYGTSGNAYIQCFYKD
smiles,measurement,value
C[S+](CC[C@H](N)C(=O)O)C[C@H]1O[C@@H](n2cnc3c(N)ncnc32)[C@H](O)[C@@H]1O (stereo partly shown) [SAM],SAM released from boiled purified BlsL; HPLC and MS/MS,Association of SAM with BlsL was confirmed by HPLC as well as MS/MS fragmentation
